Consider 30 molecules from patent publication US20230146395A1, “Substituted Pyrimidines and Uses Thereof” (Verge Analytics, Inc., priority 2020, published 2023).

The term IC50 denotes the concentration at which inhibition is half-maximal.

SMILES strings stand for the structures. Where a name gives a salt, the structure may show the parent alone.

T1 sequence (Q9Y2I7 whole entry): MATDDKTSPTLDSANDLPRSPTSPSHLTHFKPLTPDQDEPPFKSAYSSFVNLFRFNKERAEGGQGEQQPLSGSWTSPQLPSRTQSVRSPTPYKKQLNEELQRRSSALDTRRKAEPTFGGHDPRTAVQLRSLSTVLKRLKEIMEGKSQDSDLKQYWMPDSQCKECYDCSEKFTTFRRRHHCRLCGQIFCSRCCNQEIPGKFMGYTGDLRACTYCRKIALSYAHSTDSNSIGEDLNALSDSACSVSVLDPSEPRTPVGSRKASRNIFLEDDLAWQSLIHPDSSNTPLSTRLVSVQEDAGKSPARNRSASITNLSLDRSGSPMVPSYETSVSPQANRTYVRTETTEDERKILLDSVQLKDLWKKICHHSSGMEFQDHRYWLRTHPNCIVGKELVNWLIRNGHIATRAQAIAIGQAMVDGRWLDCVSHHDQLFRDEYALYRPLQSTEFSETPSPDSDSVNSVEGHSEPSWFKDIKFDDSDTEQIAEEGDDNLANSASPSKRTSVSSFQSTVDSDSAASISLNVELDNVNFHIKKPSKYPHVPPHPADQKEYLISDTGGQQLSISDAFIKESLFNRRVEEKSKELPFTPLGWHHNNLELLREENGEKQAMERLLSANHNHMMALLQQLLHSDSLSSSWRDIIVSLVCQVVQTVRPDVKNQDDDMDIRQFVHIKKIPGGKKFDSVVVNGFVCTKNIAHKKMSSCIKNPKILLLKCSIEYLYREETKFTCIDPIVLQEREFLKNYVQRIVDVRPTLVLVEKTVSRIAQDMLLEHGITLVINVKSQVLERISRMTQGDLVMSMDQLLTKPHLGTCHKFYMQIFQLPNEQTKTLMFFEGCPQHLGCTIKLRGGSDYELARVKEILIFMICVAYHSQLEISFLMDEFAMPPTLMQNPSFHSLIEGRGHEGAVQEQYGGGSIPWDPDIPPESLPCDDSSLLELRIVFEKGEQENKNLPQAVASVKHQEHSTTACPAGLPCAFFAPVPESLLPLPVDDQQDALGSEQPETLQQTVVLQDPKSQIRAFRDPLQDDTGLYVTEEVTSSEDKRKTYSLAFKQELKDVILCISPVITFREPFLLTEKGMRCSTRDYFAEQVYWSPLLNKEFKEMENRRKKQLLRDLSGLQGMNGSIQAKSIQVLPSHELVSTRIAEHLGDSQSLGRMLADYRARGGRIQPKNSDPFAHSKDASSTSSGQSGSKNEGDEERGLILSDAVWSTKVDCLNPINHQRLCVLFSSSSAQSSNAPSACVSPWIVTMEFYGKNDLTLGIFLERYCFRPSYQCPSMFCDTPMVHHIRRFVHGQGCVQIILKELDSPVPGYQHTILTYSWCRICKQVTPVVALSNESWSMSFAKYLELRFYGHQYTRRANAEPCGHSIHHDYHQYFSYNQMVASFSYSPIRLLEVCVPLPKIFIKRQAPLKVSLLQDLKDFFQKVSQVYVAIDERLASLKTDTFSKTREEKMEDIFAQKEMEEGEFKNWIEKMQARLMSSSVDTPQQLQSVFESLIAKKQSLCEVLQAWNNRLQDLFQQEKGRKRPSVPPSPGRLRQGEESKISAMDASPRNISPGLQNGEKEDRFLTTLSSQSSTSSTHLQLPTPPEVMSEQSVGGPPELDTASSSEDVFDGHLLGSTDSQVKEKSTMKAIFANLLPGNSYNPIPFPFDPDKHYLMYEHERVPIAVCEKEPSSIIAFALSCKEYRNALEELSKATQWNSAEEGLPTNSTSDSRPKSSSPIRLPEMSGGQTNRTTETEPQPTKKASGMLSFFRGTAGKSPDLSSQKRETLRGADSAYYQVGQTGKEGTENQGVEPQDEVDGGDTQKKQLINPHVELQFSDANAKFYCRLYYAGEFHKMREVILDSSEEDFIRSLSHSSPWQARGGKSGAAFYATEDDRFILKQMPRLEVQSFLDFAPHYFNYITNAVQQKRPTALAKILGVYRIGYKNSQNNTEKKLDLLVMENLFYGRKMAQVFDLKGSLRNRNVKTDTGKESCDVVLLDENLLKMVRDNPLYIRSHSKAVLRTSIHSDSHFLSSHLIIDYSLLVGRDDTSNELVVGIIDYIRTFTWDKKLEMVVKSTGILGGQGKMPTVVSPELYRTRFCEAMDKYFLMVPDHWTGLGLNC

The assay has as its target T1, Full length human recombinant PIKFYVE (Homo sapiens, UniProt Q9Y2I7).
T1 construct: Full length human recombinant PIKFYVE; purchased Carna Biosciences (Kobe, Japan); host or cells: baculovirus expression system
The assay can be described thus: Inhibition of PIKfyve (microfluidic electrophoresis kinase assay, PI3P/PS substrate). To be noted: 12 concentrations. In kind it is biochemical. The method, then:
Full length human recombinant PIKFYVE expressed in baculovirus expression system as N-terminal GST-fusion protein (265 kDa) was obtained from Carna Biosciences (Kobe, Japan). The kinase substrate was prepared by mixing and sonicating fluorescently-labeled phosphatidylinositol 3-phosphate (PI3P) with phospho-L-serine (PS) at a 1:10 ratio in 50 mM HEPES buffer pH 7.5.
The kinase reactions were assembled in 384-well plates (Greiner) in a total volume of […] as follows. Kinase protein was pre-diluted in an assay buffer comprising 25 mM HEPES, pH 7.5, 1 mM DTT, 2.5 mM MgCl2, and 2.5 mM MnCl2, and 0.005% Triton X-100, and dispensed into a 384-well plate (10 μL per well). Test compounds were serially pre-diluted in DMSO and added to the protein samples by acoustic dispensing (Labcyte Echo). The concentration of DMSO was equalized to 1% in all samples. All test compounds were tested at 12 concentrations. Apilimod was used as a reference compound and was tested in identical manner in each assay plate. Control samples (0%-inhibition, in the absence of inhibitor, DMSO only) and 100%-inhibition (in the absence of enzyme) were assembled in replicates of four and were used to calculate %-inhibition in the presence of compounds. The reactions were initiated by addition of 10 μL of 2×PI3P/PS substrate supplemented with ATP. The final concentration of enzyme was 2 nM, the final concentration of ATP was […], and the final concentration of PI3P/PS substrate was 1 μM (PI3P). The kinase reactions were allowed to proceed for 3 h at room temperature. Following incubation, the reactions were quenched by addition of […] of termination buffer (100 mM HEPES, pH 7.5, 0.01% Triton X-100, 20 mM EDTA). Terminated plates were analyzed on a microfluidic electrophoresis instrument (Caliper LabChip® 3000, Caliper Life Sciences/Perkin Elmer). The change in the relative fluorescence intensity of the PI(3)P substrate and PI(3,5)P product peaks was measured. The activity in each test sample was determined as the product to sum ratio (PSR): P/(S+P), where P is the peak height of the product, and S is the peak height of the substrate. Percent inhibition (Pinh) was determined using the following equation:
Pinh=(PSR0% inh−PSRcompound)/(PSR0% inh−PSR100% inh)*100
in which PSRcompound is the product/sum ratio in the presence of compound, PSR0% inh is the product/sum ratio in the absence of compound, and the PSR100% inh is the product/sum ratio in the absence of the enzyme.
As for `Cc1ccccc1-c1cc(Nc2nc(N3CCOCC3)c3oc(-c4ccncc4)cc3n2)[nH]n1` [Compound 2, 4-morpholino-N-[5-(o-tolyl)-1H-pyrazol-3-yl]-6-(4-pyridyl)furo[3,2-d]pyrimidin-2-amine, hydrogen chloride], the IC50 amounted to 64.8 nM.

With `CN(CC1CC1)C(=O)c1cc2nc(Nc3cc(-c4ccccc4)[nH]n3)nc(N3CCOCC3)c2o1` [Compound 62, N-(cyclopropylmethyl)-N-methyl-4-morpholino-2-[(5-phenyl-1H-pyrazol-3-yl)amino]furo[3,2-d]pyrimidine-6-carboxamide, hydrogen chloride], the IC50 is 73 nM. The figure for `Cc1cccc(-c2ccn(-c3nc(N4CCOCC4=O)c4oc(-c5ccccn5)cc4n3)n2)c1` [Compound 148] is 3860 nM; for `c1ccc(-c2cnn(-c3nc(N4CCOCC4)c4oc(-c5ccncc5)cc4n3)c2)cc1` [Compound 41, 4-morpholino-2-(4-phenylpyrazol-1-yl)-6-(4-pyridyl)furo[3,2-d]pyrimidine, hydrogen chloride] it is 34 nM. `COCCN(C)Cc1cc2nc(Nc3cc(-c4ccccc4)n[nH]3)nc(N3CCOCC3)c2o1` [Compound 17]: the half-inhibitory concentration (IC50) is 303 nM.

For the molecule `CN1CCCC(c2cc3nc(Nc4cc(-c5ccncc5)n[nH]4)nc(N4CCOCC4)c3o2)C1` (stereo not drawn) [Compound 37], the IC50 is not below 10000 nM. With `Cc1c(-c2cccnc2)oc2c(N3CCOCC3)nc(-n3ccc(-c4ccccc4)n3)nc12` [Compound 180, 7-methyl-4-morpholino-2-(3-phenylpyrazol-1-yl)-6-(3-pyridyl)furo[3,2-d]pyrimidine], the IC50 is 55.6 nM. Consider `CNC(=O)c1cc2nc(Nc3cc(C4CC4)n[nH]3)nc(N3CCOCC3)c2o1` [Compound 78, 2-((3-cyclopropyl-1H-pyrazol-5-yl)amino)-N-methyl-4-morpholinofuro[3,2-d]pyrimidine-6-carboxamide hydrochloride], for which the half-inhibitory concentration (IC50) was found to be 7850 nM.

Turning to `CN1CCC(NC(=O)c2cc3nc(-n4cc(-c5ccccc5)cn4)nc(N4CCOCC4)c3o2)CC1` [Compound 157, N-(1-methylpiperidin-4-yl)-4-morpholino-2-(4-phenyl-1H-pyrazol-1-yl)furo[3,2-d]pyrimidine-6-carboxamide], the IC50 stood at 88.8 nM. On to `c1ccc(-c2coc(Nc3nc(N4CCOCC4)c4oc(-c5ccncc5)cc4n3)n2)cc1` [Compound 45, 4-morpholino-N-(4-phenyloxazol-2-yl)-6-(4-pyridyl)furo[3,2-d]pyrimidin-2-amine, hydrogen chloride], for which the IC50 was determined as 48 nM.

Take `Cc1cccc(-c2ccn(-c3nc(N4CCOCC4)c4oc(-c5cnc(C)[nH]5)cc4n3)n2)c1` [Compound 212, 6-(2-methyl-1H-imidazol-5-yl)-4-morpholino-2-(3-(m-tolyl)-1H-pyrazol-1-yl)furo[3,2-d]pyrimidine]: the IC50 was found to be 2.3 nM.

Turning to `FC(F)(F)c1cc(Nc2nc(N3CCOCC3)c3oc(-c4ccncc4)cc3n2)[nH]n1` [Compound 72, 4-morpholino-6-(pyridin-4-yl)-N-(5-(trifluoromethyl)-1H-pyrazol-3-yl)furo[3,2-d]pyrimidin-2-amine, hydrogen chloride], the half-inhibitory concentration (IC50) worked out at 552 nM. In the case of `Cc1cccc(-c2ccn(-c3nc(N4CCOCC4)c4oc(-c5cn[nH]c5)cc4n3)n2)c1` [Compound 219, 4-morpholino-2-[3-(m-tolyl)pyrazol-1-yl]-6-(1H-pyrazol-4-yl)furo[3,2-d]pyrimidine], the concentration for half-maximal inhibition (IC50) amounted to 0.4 nM.

As to `CN(C)CCCNC(=O)c1cc2nc(-n3cc(-c4ccccc4)cn3)nc(N3CCOCC3)c2o1` [Compound 168, N-(3-(dimethylamino)propyl)-4-morpholino-2-(4-phenyl-1H-pyrazol-1-yl)furo[3,2-d]pyrimidine-6-carboxamide], the IC50 worked out at 62.1 nM.

As for `Cc1cccc(-c2ccn(-c3nc(N4CCOCC4)c4oc(-c5ccccn5)cc4n3)n2)n1` [Compound 187, 2-[3-(6-methyl-2-pyridyl)pyrazol-1-yl]-4-morpholino-6-(2-pyridyl)furo[3,2-d]pyrimidine], the IC50 stood at 2390 nM. The figure for `Cc1ncc(-c2cc3nc(-n4ccc(-c5ccccc5)n4)nc(N4CCOCC4)c3o2)[nH]1` [Compound 213, 6-(2-methyl-1H-imidazol-5-yl)-4-morpholino-2-(3-phenylpyrazol-1-yl)furo[3,2-d]pyrimidine] is 10.6 nM.

`O=C(NCC1CC1)c1cc2nc(Nc3cc(-c4ccccc4)[nH]n3)nc(N3CCOCC3)c2o1` [Compound 61, N-(cyclopropylmethyl)-4-morpholino-2-[(5-phenyl-1H-pyrazol-3-yl)amino]furo[3,2-d]pyrimidine-6-carboxamide, hydrogen chloride]: the IC50 was found to be 2.5 nM. The figure for `Cc1cccc(-c2ccn(-c3nc(N4CCOCC4)c4oc(-c5nccs5)cc4n3)n2)c1` [Compound 203, 4-morpholino-2-[3-(m-tolyl)pyrazol-1-yl]-6-thiazol-2-yl-furo[3,2-d]pyrimidine] is 1.9 nM; for `Cc1cccc(-c2cnn(-c3nc(N4CCOCC4)c4oc(-c5cc(C)n(CCNC(=O)CCl)n5)cc4n3)c2)c1` [Compound 198, 2-chloro-N-[2-[5-methyl-3-[4-morpholino-2-[4-(m-tolyl)pyrazol-1-yl]furo[3,2-d]pyrimidin-6-yl]pyrazol-1-yl]ethyl]acetamide] it is 0.6 nM. For the molecule `Cn1ccc(-c2cc3nc(-n4cc(-c5cccc(Cl)c5)cn4)nc(N4CCOCC4)c3o2)n1` [Compound 192, 2-(4-(3-chlorophenyl)-1H-pyrazol-1-yl)-6-(1-methyl-1H-pyrazol-3-yl)-4-morpholinofuro[3,2-d]pyrimidine], the IC50 worked out at 21.7 nM. The figure for `CCNC(=O)c1cc2nc(-n3cc(-c4cccc(C)c4)cn3)nc(N3CCOCC3=O)c2o1` [Compound 149, N-ethyl-2-[4-(m-tolyl)pyrazol-1-yl]-4-(3-oxomorpholin-4-yl)furo[3,2-d]pyrimidine-6-carboxamide] is more than 20000 nM; for `Cc1ccnc(-c2cc(Nc3nc(N4CCOCC4)c4oc(-c5ccncc5)cc4n3)[nH]n2)c1` [Compound 21, N-[5-(4-methyl-2-pyridyl)-1H-pyrazol-3-yl]-4-morpholino-6-(4-pyridyl)fnro[3,2-d]pyrimidin-2-amine, hydrogen chloride] it is 27 nM. The same measure for `CCNC(=O)c1cc2nc(-n3cc(-c4cccc(C)c4)cn3)nc(N3CC(F)(F)OC(F)(F)C3)c2o1` [Compound 134, N-ethyl-4-(2,2,6,6-tetrafluoromorpholino)-2-(4-(m-tolyl)-1H-pyrazol-1-yl)furo[3,2-d]pyrimidine-6-carboxamide]: more than 20000 nM; for `Fc1cccc(-c2cc(Nc3nc(N4CCOCC4)c4occc4n3)[nH]n2)c1` [Compound 7, N-[5-(3-fluorophenyl)-1H-pyrazol-3-yl]-4-morpholino-furo[3,2-d]pyrimidin-2-amine, hydrogen chloride]: 451 nM. As for `c1ccc2c(Nc3nc(N4CCOCC4)c4oc(-c5ccncc5)cc4n3)n[nH]c2c1` [Compound 50, N-(1H-indazol-3-yl)-4-morpholino-6-(pyridin-4-yl)furo[3,2-d]pyrimidin-2-amine hydrochloride], the IC50 turned out to be 835 nM.

In the case of `Cc1cccc(-c2ccn(-c3nc(N4CCOCC4)c4oc(C(N)=O)cc4n3)n2)c1` [Compound 94, 4-morpholino-2-(3-(m-tolyl)-1H-pyrazol-1-yl)furo[3,2-d]pyrimidine-6-carboxamide], the IC50 amounted to 86.7 nM. For the molecule `Clc1cc2nc(Nc3cc(-c4ccccc4)n[nH]3)nc(N3CCOCC3)c2o1` [Compound 11, 6-chloro-4-morpholino-N-(5-phenyl-1H-pyrazol-3-yl)furo[3,2-d]pyrimidin-2-amine hydrochloride], the IC50 came to 54.4 nM. Turning to `c1ccc(-c2ccn(-c3nc(N4CCOCC4)c4oc(-c5nccs5)cc4n3)n2)cc1` [Compound 207, 4-morpholino-2-(3-phenylpyrazol-1-yl)-6-thiazol-2-yl-furo[3,2-d]pyrimidine], the IC50 turned out to be 6.6 nM.

With `O=C(NC1COC1)c1cc2nc(-n3cc(-c4ccccc4)cn3)nc(N3CCOCC3)c2o1` [Compound 174, 4-morpholino-N-(oxetan-3-yl)-2-(4-phenylpyrazol-1-yl)furo[3,2-d]pyrimidine-6-carboxamide], the half-inhibitory concentration (IC50) was 531 nM.

With `O=C(c1cc2nc(Nc3cc(-c4ccccc4)[nH]n3)nc(N3CCOCC3)c2o1)N1CCOCC1` [Compound 135, morpholino(4-morpholino-2-((5-phenyl-1H-pyrazol-3-yl)amino)furo[3,2-d]pyrimidin-6-yl)methanone], the IC50 was determined as 147 nM.
